According to patent US9169290B2, “Peptides and their use” (priority 2007, dated 2015):
Read-outs that look alike come from different tables or passages of the source.

Legend:
C. albicans = format: cell-based, Candida albicans
Protocol: (§1) Broth Dilution Antifungal Susceptibility Testing
(§2) The sensitivity of relevant fungal strains to the peptides was determined using Clinical Laboratory Standard Institute (CLSI; formerly NCCLS) Approved Standards.

C. krusei = format: cell-based, Candida krusei
Protocol: as §1, §2

C. parapsilosis = format: cell-based, Candida parapsilosis
Protocol: as §1
The sensitivity of relevant fungal strains to the peptides was determined using Clinical Laboratory Standard Institute (CLSI; formerly NCCLS) Approved Standards. Fungal susceptibility was tested using “Reference Method for Broth Dilution Antifungal Susceptibility Testing of Filamentous Fungi; […];

C. tropicalis = experiment: Broth dilution antifungal susceptibility testing of yeasts (CLSI M27-A), MIC; format: cell-based, Candida tropicalis
Protocol: as §1
(§3) The sensitivity of relevant fungal strains to the peptides was determined using Clinical Laboratory Standard Institute (CLSI; formerly NCCLS) Approved Standards. Fungal susceptibility was tested using “Reference Method for Broth Dilution Antifungal Susceptibility Testing of Filamentous Fungi; Approved Standard M38-P”, and yeast susceptibility was tested using “Reference Method for Broth Dilution Antifungal Susceptibility Testing of Yeasts; Approved Standard—Second Edition M27-A”.

C. glabrata = experiment: as above; format: cell-based, Candida glabrata
Protocol: as §1, §3

Cryptococcus neoformans = experiment: as above; format: cell-based; conditions: Cryptococcus neoformans strain DSM11959
Protocol: as §1, §3

A. nidulans = experiment: Broth dilution antifungal susceptibility testing of filamentous fungi (CLSI M38-P), MIC; format: cell-based, Aspergillus nidulans
Protocol: as §1, §3

A. niger = experiment: as above; format: cell-based, Aspergillus niger
Protocol: as §1, §3

Alternaria spp. = experiment: Broth dilution antifungal susceptibility testing, MIC; format: cell-based; conditions: Alternaria spp. strain DM 2006 1218a
Protocol: as §1, §3

Fusarium solani = experiment: as above; format: cell-based; conditions: Fusarium solani strain NCPF2877
Protocol: as §1, §3

Penicillium spp. = experiment: as above; format: cell-based; conditions: Penicillium spp. strain DM 2006 1285b
Protocol: as §1, §3

[1] = tested on: Scopulariopsis brevicaulis; experiment: as above; format: cell-based; conditions: Scopulariopsis brevicaulis strain DM 2006 1025
Protocol: as §1, §3

N=C(N)NCCC[C@@H](N)C(=O)N[C@H](CCCNC(=N)N)C(=O)N[C@H](CCCNC(=N)N)C(=O)N[C@H](CCCNC(=N)N)C(=O)N[C@H](CCCNC(=N)N)C(=O)N[C@H](CCCNC(=N)N)C(=O)N[C@H](CCCNC(=N)N)C(=O)N[C@H](CCCNC(=N)N)C(=O)N[C@H](CCCNC(=N)N)C(=O)N[C@H](CCCNC(=N)N)C(=O)N[C@H](CCCNC(=N)N)C(=O)N[C@H](CCCNC(=N)N)C(=O)N[C@H](CCCNC(=N)N)C(=O)O [NP339, dRdRdRdRdRdRdRdRdRdRdRdRdR]
16 to 32 µM: MIC (C. parapsilosis; C. parapsilosis strain AM2007/0132) | MIC (C. parapsilosis; C. parapsilosis strain AM2007/0138)
2 µM: MIC, Candida albicans ATCC90028 (C. albicans) | MIC (C. krusei; C. krusei strain AM2005/0496) | MIC (C. krusei; C. krusei strain AM2005/0525) | MIC (C. krusei; C. krusei strain AM2005/0531) | MIC (C. krusei; C. krusei strain AM2007/0102) | MIC (C. krusei; C. krusei strain AM2007/0103) | MIC (C. krusei; C. krusei strain AM30274.04) | MIC (C. krusei; C. krusei strain AM30332.04.05) | MIC (C. krusei; C. krusei strain AM31194/04/05) | MIC (C. krusei; C. krusei strain AM31300/04/05) | MIC (C. krusei; C. krusei strain ATCC6258) | MIC (C. parapsilosis; C. parapsilosis strain AM2005-0112) | MIC (C. parapsilosis; C. parapsilosis strain AM2007/0136) | MIC (C. parapsilosis; C. parapsilosis strain ATCC90018) | MIC (C. tropicalis; C. tropicalis strain ATCC750) | MIC (C. glabrata; C. glabrata strain AM2002/0085) | MIC (C. glabrata; C. glabrata strain AM2007/0113) | MIC (C. glabrata; C. glabrata strain AM2007/0115) | MIC (C. glabrata; C. glabrata strain AM2007/0118) | MIC (C. glabrata; C. glabrata strain AM2007/0120) | MIC (C. glabrata; C. glabrata strain AM2007/0125)
1 to 2 µM: MIC (C. parapsilosis; C. parapsilosis strain AM2004/0133) | MIC (C. parapsilosis; C. parapsilosis strain AM2007/0135) | MIC (C. parapsilosis; C. parapsilosis strain ATCC22019)
7.8 µM: MIC (A. niger; A. niger strain NCPF2022) | MIC (Alternaria spp.)
62.5 µM: MIC (A. nidulans; A nidulans strain AFG99-1373) | MIC (A. nidulans; A. nidulans strain AFG01-1716) | MIC (A. nidulans; A. nidulans strain AFG97-453) | MIC (A. nidulans; A. nidulans strain AFG 98-281) | MIC (A. nidulans; A. nidulans strain AFG99-2387) | MIC (A. nidulans; A. nidulans strain AFGR2952) | MIC (A. niger; A. niger strain AFG 01-60) | MIC (A. niger; A. niger strain AFG 01-381) | MIC (A. niger; A. niger strain AFG 01-423) | MIC (A. niger; A. niger strain AFG 01-783) | MIC (A. niger; A. niger strain AFG 01-809) | MIC (A. niger; A. niger strain AFG 01-1237) | MIC (A. niger; A. niger strain AFG 01-1286) | MIC (A. niger; A. niger strain AFG 01-1424) | MIC (A. niger; A. niger strain AFG 01-1494) | MIC (A. niger; A. niger strain AFG 01-2103) | MIC (A. niger; A. niger strain AFG 01-2112) | MIC (A. niger; A. niger strain AFG 01-2267) | MIC (A. niger; A. niger strain AFG 01-2840) | MIC (A. niger; A. niger strain AFG J940179) | MIC (A. niger; A. niger strain AFG J970467)
1 µM: MIC (C. krusei; C. krusei strain AM2005/0492) | MIC (C. krusei; C. krusei strain AM2005/0494) | MIC (C. krusei; C. krusei strain AM2005/0498) | MIC (C. krusei; C. krusei strain AM2006/0127) | MIC (C. krusei; C. krusei strain AM2007/0104) | MIC (C. krusei; C. krusei strain AM2007/0105) | MIC (C. krusei; C. krusei strain AM2007/0106) | MIC (C. krusei; C. krusei strain AM2007/0107) | MIC (C. krusei; C. krusei strain AM2007/0109) | MIC (C. krusei; C. krusei strain AM30308.03.05) | MIC (C. krusei; C. krusei strain AM30455.04.05) | MIC (C. parapsilosis; C. parapsilosis strain AM2005/0237) | MIC (C. parapsilosis; C. parapsilosis strain AM2005/0239) | MIC (C. tropicalis; C. tropicalis strain AM2004/0087) | MIC (C. tropicalis; C. tropicalis strain AM2004/0088) | MIC (C. tropicalis; C. tropicalis strain AM2004/0089) | MIC (C. tropicalis; C. tropicalis strain AM2004/0090) | MIC (C. tropicalis; C. tropicalis strain AM2004/0091) | MIC (C. glabrata; C. glabrata strain AM2002/0088) | MIC (C. glabrata; C. glabrata strain AM2007/0114) | MIC (C. glabrata; C. glabrata strain AM2007/0116) | MIC (C. glabrata; C. glabrata strain AM2007/0117) | MIC (C. glabrata; C. glabrata strain AM2007/0119) | MIC (C. glabrata; C. glabrata strain AM2007/0121) | MIC (C. glabrata; C. glabrata strain AM2007/0122) | MIC (C. glabrata; C. glabrata strain AM2007/0123) | MIC (C. glabrata; C. glabrata strain AM2007/0124) | MIC (C. glabrata; C. glabrata strain AM2007/0126) | MIC (C. glabrata; C. glabrata strain AM2007/0127) | MIC (C. glabrata; C. glabrata strain AM2007/0128) | MIC (C. glabrata; C. glabrata strain AM2007/0129) | MIC (C. glabrata; C. glabrata strain AM2007/0130) | MIC (Cryptococcus neoformans) | MIC [1]
2 to 16 µM: MIC (C. parapsilosis; C. parapsilosis strain AM2005/0337)
3.9 µM: MIC (A. nidulans; A nidulans strain NCPF2691) | MIC (Fusarium solani)
125 µM: MIC (A. nidulans; A. nidulans strain AFG9811-35)
8 to 32 µM: MIC (C. parapsilosis; C. parapsilosis strain AM2007/0137)
15.6 µM: MIC (Penicillium spp.)
4 to 32 µM: MIC (C. parapsilosis; C. parapsilosis strain AM2007/0131) | MIC (C. parapsilosis; C. parapsilosis strain AM2007/0134)
8 µM: MIC (C. parapsilosis; C. parapsilosis strain AM2005/0233) | MIC (C. parapsilosis; C. parapsilosis strain AM2007/0139)
256 µM: MIC (A. nidulans; A nidulans strain AFG99-247)
>4000 µM: MIC (A. niger; A. niger strain AFG 01-2620)
4 µM: MIC (C. parapsilosis; C. parapsilosis strain AM2005/0242)
4000 µM: MIC (A. nidulans; A nidulans strain AFG97-71)
16 µM: MIC (C. parapsilosis; C. parapsilosis strain AM2005/0238)
1000 µM: MIC (A. nidulans; A. nidulans strain AFG00-676) | MIC (A. nidulans; A. nidulans strain AFG01-835) | MIC (A. niger; A. niger strain AFG 01-237) | MIC (A. niger; A. niger strain AFG 01-385)
